Our source for the GI50 and TGI values is PubChem BioAssay (NCI).

Some test systems named below: DU-145 prostate; KM12 colon; NCI-H23 lung; NCI-H460 lung; NCI-H522 lung; OVCAR-8 ovarian; RXF 393 renal; SK-MEL-5 melanoma; UACC-257 melanoma; UO-31 renal.
What all share (test): inhibition of tumour cell growth, NCI panel, 48 h

“And” between values parts separate entries of the source, which are not always exact repeats. Identical values can stand only once.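 Interpolation was linear, between the two tested concentrations surrounding the appropriate level; five concentrations were tested over 48 hours in 96-well plates. Here, GI50 denotes the concentration required for 50% inhibition of growth. TGI is the concentration that stops growth completely.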

Regarding `COc1ccc(Oc2ccccc2NC(=O)CNC(=O)c2cccc3ccccc23)cc1`, the GI50 is 1020 nM in the experiment with DU-145 prostate; 577 nM in the experiment with KM12 colon; 1280 nM in the experiment with NCI-H23 lung; 859 nM in the experiment on NCI-H460 lung; 193 nM in the experiment with NCI-H522 lung; 1150 nM with OVCAR-8 ovarian. In addition, the GI50 in the experiment with RXF 393 renal is 494 nM; with SK-MEL-5 melanoma it was 377 nM; in the experiment on UACC-257 melanoma, more than 25000 nM; in the experiment with UO-31 renal, 1490 nM. In addition, the TGI in the experiment with DU-145 prostate, in the experiment on KM12 colon, in the experiment with NCI-H23 lung, in the experiment on NCI-H460 lung, with NCI-H522 lung and with OVCAR-8 ovarian was more than 25000 nM throughout. The TGI in the experiment on RXF 393 renal was more than 25000 nM; in the experiment on SK-MEL-5 melanoma, 8410 nM; in the experiment with UACC-257 melanoma, more than 25000 nM; in the experiment with UO-31 renal it was more than 25000 nM.
With `C[C@H]1c2ccccc2CN1CCCOc1cc2c(cc1OCC1CC1)C1(CCCC1)C(N)=N2`, the GI50 in the experiment with DU-145 prostate was 2660 nM; in the experiment on KM12 colon it was 2030 nM; with NCI-H23 lung, 3260 nM; in the experiment on NCI-H460 lung, 1020 nM; in the experiment on NCI-H522 lung it was 1660 nM; in the experiment on OVCAR-8 ovarian, 2380 nM. The GI50 was 1080 nM with RXF 393 renal, 912 nM in the experiment with SK-MEL-5 melanoma, 999 nM in the experiment on UACC-257 melanoma and 1020 nM with UO-31 renal. For the same compound, the TGI with DU-145 prostate stood at 8630 nM; in the experiment with KM12 colon, 7690 nM; in the experiment with NCI-H23 lung, 10300 nM; with NCI-H460 lung, 2100 nM; in the experiment with NCI-H522 lung, 6620 nM; with OVCAR-8 ovarian, 8830 nM. The TGI amounted to 3820 nM in the experiment with RXF 393 renal, 1690 nM in the experiment on SK-MEL-5 melanoma, 2130 nM in the experiment on UACC-257 melanoma and 3040 nM in the experiment with UO-31 renal.
Turning to `O=C1CCC(N2C(=O)c3cccc(NCCCC4CCN(CCNC(=O)c5cc6c(o5)C(=O)c5ccccc5C6=O)CC4)c3C2=O)C(=O)N1` (stereo not given), the GI50 in the experiment with DU-145 prostate was 185 nM; in the experiment with KM12 colon it was 1290 nM; in the experiment on NCI-H23 lung, 159 nM; with NCI-H460 lung, 249 nM; in the experiment on NCI-H522 lung it was 1500 nM; with OVCAR-8 ovarian, 1410 nM. Further, the GI50 is 1030 nM in the experiment with RXF 393 renal, 163 nM in the experiment on SK-MEL-5 melanoma, 632 nM with UACC-257 melanoma and 1370 nM in the experiment with UO-31 renal. Besides, the TGI in the experiment on DU-145 prostate is 344 nM; in the experiment with KM12 colon it was 3970 nM; in the experiment with NCI-H23 lung, 399 nM; with NCI-H460 lung, 609 nM; in the experiment with NCI-H522 lung, 3270 nM; in the experiment on OVCAR-8 ovarian it was 7180 nM. For the same compound, the TGI in the experiment on RXF 393 renal came out at 3080 nM; in the experiment with SK-MEL-5 melanoma, 303 nM; in the experiment with UACC-257 melanoma it was 1870 nM; in the experiment on UO-31 renal, 2910 nM.
Consider `CC/C=C\C/C=C/C=C1/C(=O)C=C[C@@H]1C/C=C\CCCC(=O)OC`, for which the GI50 is 4550 nM in the experiment on DU-145 prostate; 2240 nM with KM12 colon; 1900 nM with NCI-H23 lung; 3070 nM in the experiment with NCI-H460 lung; 1780 nM in the experiment on NCI-H522 lung; 2750 nM with OVCAR-8 ovarian. Also, the GI50 in the experiment on RXF 393 renal was 1940 nM; with SK-MEL-5 melanoma it was 1990 nM; in the experiment on UACC-257 melanoma, 3270 nM; in the experiment on UO-31 renal it was 1640 nM. Also, the TGI with DU-145 prostate was 17400 nM; in the experiment on KM12 colon, 6590 nM; in the experiment with NCI-H23 lung, 4450 nM; with NCI-H460 lung, 8850 nM; in the experiment on NCI-H522 lung it was 4240 nM; with OVCAR-8 ovarian, more than 100000 nM. The TGI came to 3840 nM with RXF 393 renal, 4050 nM in the experiment with SK-MEL-5 melanoma, 11400 nM in the experiment with UACC-257 melanoma and 3600 nM in the experiment with UO-31 renal.
As for `C=CCn1c(=O)c2cnc(Nc3ccc(N4CCN(C)CC4)cc3)nc2n1-c1cccc(C(C)(C)O)n1`, the GI50 with DU-145 prostate was 872 nM and 678 nM; in the experiment with KM12 colon, 293 nM and 364 nM; in the experiment on NCI-H23 lung, 218 nM and 295 nM; in the experiment on NCI-H460 lung it was 1560 nM and 996 nM; with NCI-H522 lung it was 176 nM and 293 nM; with OVCAR-8 ovarian, 417 nM and 526 nM. In addition, the GI50 in the experiment with RXF 393 renal was 85.5 nM and 232 nM; in the experiment with SK-MEL-5 melanoma, 231 nM and 442 nM; in the experiment on UACC-257 melanoma, 675 nM and > 4690 nM; with UO-31 renal, 338 nM and 280 nM. In addition, the TGI in the experiment on DU-145 prostate is 18000 nM and > 10000 nM; in the experiment on KM12 colon it was 1530 nM and 3070 nM; in the experiment with NCI-H23 lung, 1270 nM and > 4860 nM; in the experiment with NCI-H460 lung, 14100 nM and > 10000 nM; in the experiment with NCI-H522 lung, 645 nM and 2080 nM; in the experiment on OVCAR-8 ovarian, 2910 nM and > 7790 nM. The TGI is 531 nM and 1140 nM in the experiment with RXF 393 renal; 1040 nM and 7760 nM with SK-MEL-5 melanoma; 18700 nM and > 10000 nM in the experiment on UACC-257 melanoma; 7470 nM and > 10000 nM in the experiment with UO-31 renal.
As to `NNc1c2ccccc2nc2ccccc12`, the GI50 in the experiment with DU-145 prostate is 10900 nM; in the experiment on KM12 colon, 4550 nM; in the experiment on NCI-H23 lung it was 1370 nM; in the experiment on NCI-H460 lung, 2480 nM; with NCI-H522 lung it was 2590 nM; with OVCAR-8 ovarian, 5090 nM. For the same compound, the GI50 in the experiment on RXF 393 renal is 7400 nM; in the experiment with SK-MEL-5 melanoma it was 2140 nM; with UACC-257 melanoma it was 4060 nM; with UO-31 renal, 2760 nM. For the same compound, the TGI with DU-145 prostate is more than 100000 nM; with KM12 colon, 27800 nM; in the experiment on NCI-H23 lung, 33000 nM; with NCI-H460 lung, 15500 nM; with NCI-H522 lung, 14400 nM; in the experiment on OVCAR-8 ovarian, 30700 nM. Further, the TGI with RXF 393 renal is 24400 nM; with SK-MEL-5 melanoma, 13300 nM; in the experiment on UACC-257 melanoma, 36200 nM; with UO-31 renal it was 19500 nM.
In the case of `O=c1c(-c2ccccc2)coc2cc(OC/C(=N/O)c3ccc(F)cc3)ccc12`, the GI50 with DU-145 prostate is 17400 nM; in the experiment with KM12 colon, 14500 nM; with NCI-H23 lung, 19300 nM; in the experiment with NCI-H460 lung, 17400 nM; in the experiment on NCI-H522 lung it was 14500 nM; with OVCAR-8 ovarian, 16900 nM. For the same compound, the GI50 was 17700 nM with RXF 393 renal, 11600 nM in the experiment on SK-MEL-5 melanoma, 10200 nM in the experiment on UACC-257 melanoma and 17400 nM with UO-31 renal. In addition, the TGI amounted to 36000 nM with DU-145 prostate; 33100 nM with KM12 colon; 42100 nM in the experiment on NCI-H23 lung; 38200 nM in the experiment on NCI-H460 lung; 46000 nM with NCI-H522 lung; 43400 nM with OVCAR-8 ovarian. For the same compound, the TGI in the experiment with RXF 393 renal amounted to 37500 nM; in the experiment on SK-MEL-5 melanoma, 23900 nM; with UACC-257 melanoma, 27300 nM; in the experiment with UO-31 renal it was 50200 nM.
